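Test compounds were applied to cells in 96-well plates for 48 hours at 5 doses. Here, GI50 denotes the concentration required for 50% inhibition of growth.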 The source made the active and inactive calls. No stated cut-off is given here; in the data, active = GI50 up to about 1.1 µM and inactive = higher.
What was measured:
Assay in all cases: NCI tumour cell line growth inhibition, 48 h
NCI-H522 = tested on: NCI-H522
SK-MEL-2 = tested on: SK-MEL-2
MOLT-4 = tested on: MOLT-4
UO-31 = tested on: UO-31
HCT-116 = tested on: HCT-116
A498 = tested on: A498
M19-MEL = tested on: M19-MEL
DLD-1 = tested on: DLD-1
CCRF-CEM = tested on: CCRF-CEM
ACHN = tested on: ACHN
Malme-3M = tested on: Malme-3M
HL-60 = tested on: HL-60
KM12 = tested on: KM12
DMS-114 = tested on: DMS-114
UACC-257 = tested on: UACC-257
NCI-H226 = tested on: NCI-H226
LXFL 529 = tested on: LXFL 529
SF-268 = tested on: SF-268
SW-620 = tested on: SW-620
U-251 = tested on: U-251
NCI-H460 = tested on: NCI-H460
DMS-273 = tested on: DMS-273
KM-20L2 = tested on: KM-20L2
786-0 = tested on: 786-0
RXF 393 = tested on: RXF 393
UACC-62 = tested on: UACC-62
HCT-15 = tested on: HCT-15
HCC 2998 = tested on: HCC 2998
SN12C = tested on: SN12C
NCI-H23 = tested on: NCI-H23
SR = tested on: SR
OVCAR-8 = tested on: OVCAR-8
HT-29 = tested on: HT-29
HOP-62 = tested on: HOP-62
CAKI-1 = tested on: CAKI-1
SNB-19 = tested on: SNB-19
IGROV-1 = tested on: IGROV-1
COLO 205 = tested on: COLO 205
SNB-75 = tested on: SNB-75
RPMI-8226 = tested on: RPMI-8226
LOX IMVI = tested on: LOX IMVI
SK-MEL-5 = tested on: SK-MEL-5
EKVX = tested on: EKVX
TK-10 = tested on: TK-10
SF-295 = tested on: SF-295
A549 = tested on: A549
OVCAR-4 = tested on: OVCAR-4
K562 = tested on: K562
M14 = tested on: M14
SF-539 = tested on: SF-539
SNB-78 = tested on: SNB-78
SK-MEL-28 = tested on: SK-MEL-28
OVCAR-5 = tested on: OVCAR-5
SK-OV-3 = tested on: SK-OV-3
HOP-92 = tested on: HOP-92
OVCAR-3 = tested on: OVCAR-3

In the case of `CNS(=O)(=O)NN(C)S(=O)(=O)c1ccccc1`, the GI50 (NCI-H522) was > 100 µM (inactive), the GI50 (SK-MEL-2) was > 100 µM (inactive) and the GI50 (MOLT-4) was > 100 µM (inactive). For the same compound, the GI50 (UO-31) was > 100 µM (inactive), the GI50 (HCT-116) was > 100 µM (inactive) and the GI50 (A498) was > 100 µM (inactive). For the same compound, the GI50 (M19-MEL) was > 100 µM (inactive), the GI50 (DLD-1) was > 100 µM (inactive) and the GI50 (CCRF-CEM) was > 100 µM (inactive). The GI50 (ACHN) was > 100 µM (inactive), the GI50 (Malme-3M) was > 100 µM (inactive) and the GI50 (HL-60) was > 100 µM (inactive). The GI50 (KM12) was > 100 µM (inactive), the GI50 (DMS-114) was > 100 µM (inactive) and the GI50 (UACC-257) was > 100 µM (inactive). For the same compound, the GI50 (NCI-H226) was > 100 µM (inactive), the GI50 (LXFL 529) was > 100 µM (inactive) and the GI50 (SF-268) was > 100 µM (inactive). For the same compound, the GI50 (SW-620) was > 100 µM (inactive), the GI50 (U-251) was > 100 µM (inactive) and the GI50 (NCI-H460) was 85.9 µM (inactive). For the same compound, the GI50 (DMS-273) was > 100 µM (inactive), the GI50 (KM-20L2) was > 100 µM (inactive) and the GI50 (786-0) was > 100 µM (inactive). The GI50 (RXF 393) was 0.472 µM (active), the GI50 (UACC-62) was > 100 µM (inactive) and the GI50 (HCT-15) was > 100 µM. The GI50 (HCC 2998) was > 100 µM (inactive), the GI50 (SN12C) was > 100 µM (inactive) and the GI50 (NCI-H23) was > 100 µM (inactive). For the same compound, the GI50 (SR) was > 100 µM (inactive), the GI50 (OVCAR-8) was > 100 µM (inactive) and the GI50 (HT-29) was > 100 µM (inactive). For the same compound, the GI50 (HOP-62) was > 100 µM (inactive), the GI50 (CAKI-1) was > 100 µM (inactive) and the GI50 (SNB-19) was > 100 µM (inactive). The GI50 (IGROV-1) was > 100 µM (inactive), the GI50 (COLO 205) was > 100 µM (inactive) and the GI50 (SNB-75) was > 100 µM (inactive). The GI50 (RPMI-8226) was > 100 µM (inactive), the GI50 (LOX IMVI) was > 100 µM (inactive) and the GI50 (SK-MEL-5) was > 100 µM (inactive). The GI50 (EKVX) was > 100 µM (inactive), the GI50 (TK-10) was > 100 µM (inactive) and the GI50 (SF-295) was > 100 µM (inactive). For the same compound, the GI50 (A549) was > 100 µM (inactive), the GI50 (OVCAR-4) was > 100 µM (inactive) and the GI50 (K562) was > 100 µM (inactive). For the same compound, the GI50 (M14) was > 100 µM (inactive) and the GI50 (SF-539) was > 100 µM (inactive).

In the case of `CN(C)c1ccc(/C=C(/C(=O)O)c2csc(-c3nc(/C(=C\c4ccc(N(C)C)cc4)C(=O)O)cs3)n2)cc1`, the GI50 (SK-MEL-2) was > 100 µM (inactive), the GI50 (MOLT-4) was 58.6 µM (inactive) and the GI50 (UO-31) was 60.3 µM (inactive). The GI50 (HCT-116) was > 100 µM (inactive), the GI50 (A498) was > 100 µM (inactive) and the GI50 (M19-MEL) was > 100 µM (inactive). For the same compound, the GI50 (DLD-1) was > 100 µM (inactive), the GI50 (CCRF-CEM) was 16.7 µM (inactive) and the GI50 (ACHN) was > 100 µM (inactive). For the same compound, the GI50 (Malme-3M) was > 100 µM (inactive), the GI50 (HL-60) was 43 µM (inactive) and the GI50 (KM12) was > 100 µM (inactive). For the same compound, the GI50 (SNB-78) was > 100 µM (inactive), the GI50 (DMS-114) was 29.9 µM (inactive) and the GI50 (UACC-257) was > 100 µM (inactive). The GI50 (NCI-H226) was > 100 µM (inactive), the GI50 (LXFL 529) was 96.4 µM (inactive) and the GI50 (SF-268) was > 100 µM (inactive). For the same compound, the GI50 (SW-620) was > 100 µM (inactive), the GI50 (U-251) was > 100 µM (inactive) and the GI50 (NCI-H460) was > 100 µM (inactive). The GI50 (SK-MEL-28) was > 100 µM (inactive), the GI50 (KM-20L2) was > 100 µM (inactive) and the GI50 (786-0) was 46.2 µM (inactive). For the same compound, the GI50 (RXF 393) was > 100 µM (inactive), the GI50 (UACC-62) was 80.9 µM (inactive) and the GI50 (HCT-15) was 42.1 µM. The GI50 (HCC 2998) was > 100 µM (inactive), the GI50 (SN12C) was > 100 µM (inactive) and the GI50 (NCI-H23) was > 100 µM (inactive). The GI50 (OVCAR-8) was > 100 µM (inactive), the GI50 (HT-29) was 44.7 µM (inactive) and the GI50 (OVCAR-5) was > 100 µM (inactive). The GI50 (SK-OV-3) was > 100 µM (inactive), the GI50 (HOP-62) was > 100 µM (inactive) and the GI50 (CAKI-1) was > 100 µM (inactive). For the same compound, the GI50 (IGROV-1) was > 100 µM (inactive), the GI50 (COLO 205) was 93.3 µM (inactive) and the GI50 (SNB-75) was > 100 µM (inactive). The GI50 (RPMI-8226) was 46.1 µM (inactive), the GI50 (LOX IMVI) was 73.8 µM (inactive) and the GI50 (SK-MEL-5) was 86.5 µM (inactive). For the same compound, the GI50 (EKVX) was > 100 µM (inactive), the GI50 (TK-10) was > 100 µM (inactive) and the GI50 (SF-295) was > 100 µM (inactive). For the same compound, the GI50 (A549) was > 100 µM (inactive), the GI50 (K562) was 41.7 µM (inactive) and the GI50 (M14) was > 100 µM (inactive). For the same compound, the GI50 (HOP-92) was > 100 µM (inactive), the GI50 (SF-539) was > 100 µM (inactive) and the GI50 (OVCAR-3) was > 100 µM (inactive).

In the case of `NC(CCCC(N)P(=O)(O)O)C(=O)O` (stereo not drawn), the GI50 (NCI-H522) was > 100 µM (inactive), the GI50 (MOLT-4) was > 100 µM (inactive) and the GI50 (UO-31) was > 100 µM (inactive). For the same compound, the GI50 (HCT-116) was > 100 µM (inactive), the GI50 (A498) was > 100 µM (inactive) and the GI50 (M19-MEL) was > 100 µM (inactive). The GI50 (CCRF-CEM) was > 100 µM (inactive), the GI50 (ACHN) was > 100 µM (inactive) and the GI50 (HL-60) was > 100 µM (inactive). The GI50 (KM12) was > 100 µM (inactive), the GI50 (SNB-78) was > 100 µM (inactive) and the GI50 (DMS-114) was > 100 µM (inactive). For the same compound, the GI50 (UACC-257) was > 100 µM (inactive), the GI50 (NCI-H226) was > 100 µM (inactive) and the GI50 (SF-268) was > 100 µM (inactive). For the same compound, the GI50 (U-251) was > 100 µM (inactive), the GI50 (NCI-H460) was > 100 µM (inactive) and the GI50 (DMS-273) was > 100 µM (inactive). The GI50 (SK-MEL-28) was > 100 µM (inactive), the GI50 (KM-20L2) was > 100 µM (inactive) and the GI50 (RXF 393) was > 100 µM (inactive). For the same compound, the GI50 (UACC-62) was > 100 µM (inactive), the GI50 (NCI-H23) was > 100 µM (inactive) and the GI50 (SR) was > 100 µM (inactive). The GI50 (OVCAR-8) was > 100 µM (inactive), the GI50 (HT-29) was > 100 µM (inactive) and the GI50 (OVCAR-5) was > 100 µM (inactive). The GI50 (SK-OV-3) was > 100 µM (inactive), the GI50 (HOP-62) was > 100 µM (inactive) and the GI50 (SNB-19) was > 100 µM (inactive). The GI50 (IGROV-1) was > 100 µM (inactive), the GI50 (EKVX) was > 100 µM (inactive) and the GI50 (TK-10) was > 100 µM (inactive). The GI50 (SF-295) was > 100 µM (inactive), the GI50 (A549) was > 10 µM (inactive) and the GI50 (M14) was > 100 µM (inactive). The GI50 (HOP-92) was > 100 µM (inactive).

Source: ChEMBL document CHEMBL1201862, “PubChem BioAssay data set” (2004)
